Experimental data: US9156824B2, “CDC7 inhibitors” (Eli Lilly and Company, priority 2013, dated 2015)
pIC50: −log10 of the molar value. Where two headings read alike, the source gives them in different places.

Key:
[1] = test system: phosphorylated MCM2 at Serine 53 (pMCM2-S53) in H1299 cells; test: Acumen imaging assay for detection of phosphorylated MCM2 in H1299 cells; type: cell-based; details: 4 hours treatment, read-out: IC50, inhibition of pMCM2-S53
Protocol: The Acumen® eX3 is used to determine the effect of compounds on the formation of endogenous phosphorylated MCM2 at Serine 53 (pMCM2-S53). Phosphorylation of MCM2 by CDC7 is determined using specific anti-pMCM2-S53 antibody and quantified with fluorescent tagged secondary antibodies by Acumen® eX3 to monitor CDC7 activity in cells. Phosphorylation of MCM2 at Serine 53 is known to be correlated to CDC7 inhibition.
H1299 cells (ATCC #CRL-5803) are maintained in RPMI-1640 (Hyclone SH30809.01) growth medium supplemented with 10% FBS. Cells are harvested using standard cell culture procedures and then counted using Vi-Cell XR Cell Viability Analyzer (Beckman Counter). 3000-6000 H1299 cells in 100 μL of growth medium are plated into each well of Biocoat Poly-D-Lysine 96-well black/clear plate with flat bottom BioCoat™ Multiwell (Becton Dickinson) cell culture plates 356640 and incubated overnight at 37° C., 5% CO2.
Cells are treated with the test compound (50 μL/well) diluted in medium containing 0.6% DMSO and incubated for 4 hours at 37° C. To each well is added 7.4% formaldehyde (150 μL) diluted with PBS from 37% formaldehyde stock and the plates are incubated at room temperature for 30 minutes. Formaldehyde is removed and cold methanol (100 μL) is added. The plates are incubated for 20 minutes at 4° C. to permeabilize the cells. Plates are washed 3× with 100 μL/well of PBS. […] The plates are sealed with black seal and are read on the Acumen® eX3 (TTP LABTECH) using optical filter 500-530 nanometer and 575-640 nanometer for Alexa Fluor 488 and propidium iodide, respectively. The number of pMCM2-S53 positive cells is normalized to total cells for each well and are calculated as percent inhibition relative to on-plate controls. […]

CDC7/DBF4 = molecular target: T1, CDC7/DBF4 (Homo sapiens, UniProt O00311); test: CDC7/DBF4 in vitro enzyme assay (Transcreener Kinase ADP-FP); type: biochemical; details: ATP 5 μM, MCM2 400 nM, 60 minutes, read-out: IC50 against CDC7/DBF4 kinase
T1 construct: host or cells: insect cells
Protocol: The Transcreener™ Kinase ADP-FP assay is used to determine compound IC50 values against CDC7/DBF4 kinase. The Kinase ADP-FP assay assesses the activity of CDC7/DBF4 in the presence of compound inhibitors by measuring the concentration of ADP formed in a kinase reaction. The kinase reaction is performed using a 25 microliter reaction volume in 96 well assay plate. For the ADP-FP assay, the reagents are added to obtain the final reaction conditions of HEPES (25 mM) pH 7.5, 0.03% Triton® X-100, magnesium chloride (10 mM), DTT (1 mM), MCM2 (400 nM) (Amino Acid 1-209, a physiological substrate of CDC7/DBF4), spermine (4 mM), CDC7/DBF4 (2,640 ng/mL) (recombinant human CDC7/DBF4 expressed in insect cells), 4% dimethyl sulfoxide and serial dilutions of compound (diluted 1:3 from 20,000 nM to 1 nM). Enzyme and substrate is added to compound followed by ATP to 5 μM to start the reaction. The plates are incubated at room temperature for 60 minutes.
For the ADP-FP format add 25 microliters of a quench detection reagent containing HEPES (52 mM) pH 7.5, EDTA (20 mM), sodium chloride (0.4 M), polyoxyethyleneglycol dodecyl ether (0.02%) (BRIJ-35™), anti-ADP antibody (10 μg/mL), and ADP (4 nM) Transcreener® ADP Alexa Fluor® 633 tracer to quench the reaction. The plates are incubated for 1 hour, and then read in a Wallac EnVision™ 2104 Multilabel Reader (PerkinElmer) in Fluorescence Polarization mode using polarizing filters of Ex620nm and Em688nm wavelength. Millipolarization (mP) raw data is converted to micromolar ADP using a prepared ADP/ATP standard curve starting at 5 μM ADP 1:1 serial dilution in reaction buffer to 0.0025 μM ADP. The IC50 value for each compound is derived using percent inhibition data calculated from the μM ADP reaction data relative to on-plate controls (DMSO versus 100 mM EDTA inhibited enzyme controls). The percent inhibition and ten-point compound concentration data is then fitted to a four-parameter logistic equation.

[2] = test system: pMCM2-S40/41 in Colo-205 xenograft tumors; test: CDC7 in vivo target inhibition (IVTI) on pMCM2-S40/41 with Colo-205 xenograft tumor model; set-up: species or system mice; details: 4 hours following an oral dose
Protocol: Human colo-205 colorectal cancer cells (ATCC#CCL-222) are maintained in RPMI 1640 medium containing 10% FBS. Log phase growing cells are harvested, washed, and resuspended in a 1:1 mixture of serum free medium and Matrigel™ (Becton Dickinson). They are injected subcutaneously at 5×10^6 cells/animal/site in the rear flank as subcutaneous tumor xenograft models in balb/c (nu/nu) female mice (6-8 weeks with body weight of 20 to 25 gram/mouse). Animals are randomized at the mean tumor volume of 150 to 250 mm^3 mice, (v=1×w×0.536 where 1=larger of measured diameter and w=smaller of perpendicular diameter). Compound is administered by P.O. in a standard 1% HEC w/v, P80 0.25% v/v, Antifoam 1510-US 0.05% v/v formulation. […] Protein concentration from tumor lysates is determined by BCA assay (Thermo Scientific) and 5 to 10 μg of protein is separated by standard SDS-PAGE (BioRad Criterion™ gel) or (Invitrogen ePage™ gel). […] Levels of pMCM2-S40/41 are determined and quantified by either Licor or FUJI imagers and normalized to the total GAPDH level. The percent change inhibition of pMCM2-S40/41 band intensity is calculated using the average intensity of vehicle treated control tumors normalized to the GAPDH as the maximum signal. […]

[3] = test system: panel of 114 cancer cell lines of colorectal, breast, lung, and blood (leukemia) origin; test: In vitro antiproliferative assay (cell number counting); type: cell-based; details: for Number of Cell Lines that Die Rapidly: within 2 doubling times
Protocol: In vitro anti-proliferative activity of Example 2 is determined by cell number counting assays against a panel of 114 cancer cell lines of colorectal, breast, lung, and blood (leukemia) origin obtained from ATCC, HSRRB, RIKEN or ECACC. The cells are cultured and maintained in media per supplier's instructions. Cell doubling time of each cell line is determined and all cell lines are free of mycoplasma contamination. Cells are cultured overnight in 96-well plates before compound addition for anti-proliferative activity assays. Optimal cell seeding density is carefully evaluated for each cell lines by seeding the cell culture with 4 different cell densities in 100 μL media and taking into consideration of their doubling time and cell sizes. The seeding density that gave about 90% confluence at end of two doubling times is then selected for compound testing. Staurosporine is used with 1:3 dilution as a reference. Example 2 is prepared as a 4 mM DMSO stock and diluted in culture media in a 1:2 ratio. 50 μL of the media containing the compound is added to each well of the overnight 96-well culture to produce the desired final concentrations of 20, 10, 5, 2.5, 1.25, 0.625, 0.312, 0.156, 0.078 μM and DMSO control. Each treatment concentration has duplicate wells. The cells are further cultured for two doubling times in the presence of the compound. At end of treatment time, cells are first examined under a microscope for morphological changes, such as cell death or apparent cell size increases. Cells in each duplicate well are collected separately. Adherent cells are harvested by tripsinization first. Harvested cells are re-suspended in growth media and are counted using a cell counter.

T1 sequence (O00311 whole entry): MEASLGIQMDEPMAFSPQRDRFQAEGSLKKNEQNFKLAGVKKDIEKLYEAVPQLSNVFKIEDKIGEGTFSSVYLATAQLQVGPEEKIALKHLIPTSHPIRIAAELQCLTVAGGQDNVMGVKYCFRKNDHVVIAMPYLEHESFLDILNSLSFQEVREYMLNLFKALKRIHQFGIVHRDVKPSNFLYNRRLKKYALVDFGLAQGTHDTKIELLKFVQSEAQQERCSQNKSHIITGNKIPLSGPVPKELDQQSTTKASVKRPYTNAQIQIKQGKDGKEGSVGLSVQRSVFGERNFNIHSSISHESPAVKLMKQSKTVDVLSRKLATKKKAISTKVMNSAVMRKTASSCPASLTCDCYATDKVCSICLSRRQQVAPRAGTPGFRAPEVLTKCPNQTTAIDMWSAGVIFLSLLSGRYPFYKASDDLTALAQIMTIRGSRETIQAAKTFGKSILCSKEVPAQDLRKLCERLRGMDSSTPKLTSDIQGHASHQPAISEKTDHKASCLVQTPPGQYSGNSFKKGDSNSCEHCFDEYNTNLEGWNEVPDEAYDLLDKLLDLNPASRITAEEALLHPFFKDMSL
T1 sequence (Q9UBU7 whole entry partner): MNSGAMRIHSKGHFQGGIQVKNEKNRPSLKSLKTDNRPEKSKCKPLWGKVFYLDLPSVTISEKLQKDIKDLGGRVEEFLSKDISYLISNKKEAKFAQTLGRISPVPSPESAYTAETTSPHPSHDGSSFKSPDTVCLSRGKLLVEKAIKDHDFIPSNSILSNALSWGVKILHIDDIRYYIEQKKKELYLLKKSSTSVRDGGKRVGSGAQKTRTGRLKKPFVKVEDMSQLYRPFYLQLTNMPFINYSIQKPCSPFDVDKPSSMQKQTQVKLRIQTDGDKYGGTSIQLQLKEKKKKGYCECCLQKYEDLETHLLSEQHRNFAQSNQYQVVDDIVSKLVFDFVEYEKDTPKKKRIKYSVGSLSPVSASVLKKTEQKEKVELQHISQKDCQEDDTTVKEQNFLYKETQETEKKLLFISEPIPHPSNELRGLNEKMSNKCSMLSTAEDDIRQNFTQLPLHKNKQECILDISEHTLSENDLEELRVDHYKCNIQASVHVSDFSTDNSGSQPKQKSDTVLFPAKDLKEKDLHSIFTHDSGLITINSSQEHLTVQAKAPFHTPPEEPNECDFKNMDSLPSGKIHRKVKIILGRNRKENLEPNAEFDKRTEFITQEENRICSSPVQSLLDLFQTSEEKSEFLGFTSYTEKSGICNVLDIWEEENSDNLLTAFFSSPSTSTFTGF

SMILES | pIC50 [1] | pIC50 (CDC7/DBF4) | TEC70 (plasma concentration for 70% inhibition of pMCM2 normalized to GAPDH) [2] [μM] | TED70 (dose for 70% inhibition of pMCM2 normalized to GAPDH) [2] [mg/kg] | pIC50 ([1]; Homo sapiens, NCI-H1299, 4 h) | Number of Cell Lines that Die Rapidly ([3]; Breast, of 17 cell lines) | Number of Cell Lines that Die Rapidly ([3]; Colorectal, of 29 cell lines) | Number of Cell Lines that Die Rapidly ([3]; Leukemia, of 23 cell lines) | Number of Cell Lines that Die Rapidly ([3]; Lung, of 39 cell lines) | Number of Cell Lines that Die Rapidly ([3]; Others, of 6 cell lines) | Number of Cell Lines that Die Rapidly ([3]; Total, of 114 cell lines) | pIC50 ([3]; majority of the 114 cancer cell lines tested, read-out: anti-proliferative activity, pharmacologically relevant concentrations) | cancer cell lines showing particular sensitivity (massive cell death) ([3]; share of the 114 cell lines, within 2 doubling time treatment periods)
CC1(c2ncncc2F)NC(=O)c2cc(-c3cn[nH]c3)ccc21 (single isomer, unassigned) [Example 3, 3-(5-Fluoropyrimidin-4-yl)-3-methyl-6-(1H-pyrazol-4-yl)isoindolin-1-one] | 6.54 | 8.35 | 1.8 | 2.6 |  |  |  |  |  |  |  |  | 
CC1(c2ncncc2F)NC(=O)c2cc(-c3cn[nH]c3)ccc21 (single isomer, unassigned; isomer 2) [Example 2, 3-(5-Fluoropyrimidin-4-yl)-3-methyl-6-(1H-pyrazol-4-yl)isoindolin-1-one, Isomer 2] |  | 8.43 |  |  | 6.58 | 0 | 4 | 5 | 2 | 1 | 12 | > 5.10 | about 10%
